Assay results taken from patent US20040022744A1, “Method of treating dental caries and remineralizing lesions” (priority 2001, published 2004).

Experiments:
[1] = test system: microflora from primary root carious lesions (PRCL); experiment: Ozone effect on microflora from primary root caries ex-vivo; type: cell-based; settings: for Mean ± SE of Total cfu (Log10): after 10 seconds of ozone treatment
Text: Primary root carious lesions (PRCL) are a major clinical problem. The aim of this study was to establish if ozone could achieve effective microbial killing in PRCL. An ozone producing generator (Purezone Ltd., Ipswich, U.K.) was used in this ex-vivo study assessing the use of ozone on PRCL. In this study, soft PRCL requiring restoration were used as these are the most severe type of lesion found in humans. 20 freshly extracted teeth with PRCL requiring restoration were used. After plaque removal using a hand held standard fine nylon fiber sterile toothbrush with sterile water as a lubricant to cleanse the surface, each tooth was then isolated using sterile cotton wool rolls and dried using a dry sterile cotton wool roll. […] Each sample was weighed and immediately placed in 1 ml of Fastidious Anaerobe Broth (FAB). To each 1 ml of FAB containing a biopsy o carious or ozone treated carious dentine, sterile glass beads were added. They were vortexed for 30 seconds to facilitate the extraction of any micro-organisms from the carious dentine and disperse any aggregates. After decimal dilution with FAB, […] of these was spread on Fastidious Anaerobe Agar (LabM, Bury, Lancs., U.K.) supplemented with 5% (V/V) horse blood in an anaerobic chamber at 37° C. for four days. The mean±SE number of each colony type was counted and calculated.
The procedure of Example 2 was repeated except that ozonized water was applied to the lesion for 20 seconds.
The aims of these studies were to evaluate the efficiency of ozone on primary root caries and associated micro-organisms (Streptococcus sobrinus; TH 21 Streptococcus mutans; NCTC 10449). In study 1, 40 soft primary root carious lesions (PRCLs) from freshly extracted teeth were used and randomly divided into two groups to test the exposure to ozone for either 10 or 20 seconds. There was a significant (p<0.001) difference (Mean±SE) between the control samples for either 10 seconds (log10 5.91±0.15) or 20 seconds (log10 6.18±0.21) and ozone treated samples for either 10 seconds (log10 3.57±0.37) or 20 seconds (log10 3.77±0.42). In study 2, 40 sterile saliva coated glass beads were put into bijoux bottles with 3 mls of Todd Hewitt broth for control and test groups. S. sobrinus and S. mutans were inoculated and incubated anaerobically overnight. Each glass bead was washed with 2 mls of PBS. Immediately, 10 seconds of ozone was applied to the glass beads in the test groups. Subsequently, each glass bead in the test and control groups was placed in 3 mls of Todd Hewitt broth with six more sterile glass beads and were vortexed for 30 seconds. […] The number of each colony type was counted and calculated. […]

[2] = test system: Streptococcus sobrinus; TH 21; experiment: Ozone on micro-organisms on saliva coated glass beads; type: cell-based; settings: S. sobrinus on saliva coated glass beads, 10 seconds of ozone
Text: The aims of these studies were to evaluate the efficiency of ozone on primary root caries and associated micro-organisms (Streptococcus sobrinus; TH 21 Streptococcus mutans; NCTC 10449). In study 1, 40 soft primary root carious lesions (PRCLs) from freshly extracted teeth were used and randomly divided into two groups to test the exposure to ozone for either 10 or 20 seconds. There was a significant (p<0.001) difference (Mean±SE) between the control samples for either 10 seconds (log10 5.91±0.15) or 20 seconds (log10 6.18±0.21) and ozone treated samples for either 10 seconds (log10 3.57±0.37) or 20 seconds (log10 3.77±0.42). In study 2, 40 sterile saliva coated glass beads were put into bijoux bottles with 3 mls of Todd Hewitt broth for control and test groups. S. sobrinus and S. mutans were inoculated and incubated anaerobically overnight. Each glass bead was washed with 2 mls of PBS. Immediately, 10 seconds of ozone was applied to the glass beads in the test groups. Subsequently, each glass bead in the test and control groups was placed in 3 mls of Todd Hewitt broth with six more sterile glass beads and were vortexed for 30 seconds. After decimal dilutions, […] were spread on blood agar plates supplemented with 5% (V/V) horse blood and placed in an anaerobic chamber at 37° C. for two days. The number of each colony type was counted and calculated. […]

`O=[O+][O-]` [ozone] was tested, and the “percentage of micro-organisms killed” value ([1]; 10 seconds of ozone, PRCL ex vivo) was “more than 99%”, the “Mean ± SE of Total cfu (Log10)” value ([1]; soft PRCL of extracted teeth) was 3.57±0.37 Log10 and the “Mean ± SE of Total cfu (Log10)” value ([1]; soft PRCL of extracted teeth, listed as Ozone) was 3.57 ± 0.37 Log10. The “Total cfu (log10), mean±SE” value ([1]; after 20 seconds of ozone treatment, soft PRCL of extracted teeth) was 3.77±0.42 log10 and the “colony count (log10), Mean ±SE” value [2] was 1.09±0.36 log10.
